The source made the active and inactive calls. The rule behind the calls is not given here.
What was measured:
[1] = system: RKO; assay: Antitumor activity against human RKO cells xenografted in BALB/c mouse assessed as tumor growth inhibition at 100 mg/kg, po bid administered via gavage for 21 consecutive days and measured on day 21 relative to control; format: functional; conditions: 504 h, time 21 day, read-out: TGI
[2] = system: RKO; assay: Induction of apoptosis in human RKO cells assessed as late apoptotic cells at 12.5 uM measured after 48 hrs by Annexin V-FITC/PI staining based flow cytometry analysis (reference value: 0.82 %); format: functional
[3] = species on record: Homo sapiens; assay: Potency index, ratio of RG7388 Ki to test compound Ki for displacement of 5-FAM labeled PDI peptide from MDM4 C17S mutant (14 to 111 residues) (unknown origin) expressed in Escherichia coli BL21 (DE3) assessed as inhibition constant incubated for 1.5 hrs by fluorescence polarization competition assay
[4] = system: MCF7; assay: Effect on MDM4 protein expression in human MCF7 cells at 2.5 uM measured after 24 hrs by Western blot analysis; format: functional, cell-based
[5] = system: MCF7; assay: Upregulation of MDM2 protein expression in human MCF7 cells at 2.5 uM measured after 24 hrs by Western blot analysis; format: functional, cell-based
[6] = system: RKO; assay: Induction of apoptosis in human RKO cells assessed as necrotic cells at 25 uM measured after 48 hrs by Annexin V-FITC/PI staining based flow cytometry analysis (reference value: 2.08 %); format: functional
[7] = system: RKO; assay: Downregulation of MDM4 expression in human RKO cells at 0.3125 to 2.5 uM incubated for 24 hrs by Western blot analysis; format: functional, cell-based; conditions: dose 0.3125-2.5 µM
[8] = system: U2OS; assay: Effect on MDM4 protein expression in human U2OS cells at 2.5 uM measured after 24 hrs by Western blot analysis; format: functional, cell-based
[9] = target: Cyclin-dependent kinase inhibitor 1 (Homo sapiens) (UniProt P38936); assay: Activation of p21 in human HCT-116 cells incubated for 24 hrs by Western blot analysis; format: cell-based; conditions: filed as activator, dose 0.078125-2.5 µM, DDE = dose-dependent effect
[10] = system: NCI-H460; assay: Downregulation of MDM4 protein expression in human NCI-H460 cells at 2.5 uM measured after 24 hrs by Western blot analysis; format: functional, cell-based
[11] = system: RKO; assay: cells; conditions: Homo sapiens, 96 h
[12] = system: RKO; assay: Induction of apoptosis in human RKO cells assessed as early apoptotic cells at 25 uM measured after 48 hrs by Annexin V-FITC/PI staining based flow cytometry analysis (reference value: 3.56 %); format: functional
[13] = system: RKO; assay: Induction of PARP cleavage in human RKO cells at 0.3125 to 2.5 uM incubated for 24 hrs by Western blot analysis; format: functional, cell-based; conditions: dose 0.3125-2.5 µM
[14] = system: RKO; assay: Induction of cell cycle arrest in human RKO cells assessed as effect on cell cycle distribution incubated for 24 hrs by FACSCalibur flow cytometry analysis; format: functional, cell-based; conditions: dose 6.25-25 µM, DDE = dose-dependent effect
[15] = system: RKO; assay: Upregulation of MDM2 gene expression in human RKO cells incubated for 24 hrs by qPCR analysis; format: functional, cell-based; conditions: dose 0.3125-2.5 µM, DDE = dose-dependent effect
[16] = system: RKO; assay: Induction of apoptosis in human RKO cells assessed as necrotic cells at 12.5 uM measured after 48 hrs by Annexin V-FITC/PI staining based flow cytometry analysis (reference value: 2.08 %); format: functional
[17] = AUC in ICR mouse at 15 mg/kg, po measured upto 24 hrs by LC-MS/MS analysis; format: ADME, organism-based; parameters: time < 24 hrs, dose 15 mg/kg, route po; conditions: in vivo
[18] = system: MCF7; assay: Upregulation of p53 protein expression in human MCF7 cells at 2.5 uM measured after 24 hrs by Western blot analysis; format: functional, cell-based
[19] = system: NCI-H460; assay: Upregulation of p53 protein expression in human NCI-H460 cells at 2.5 uM measured after 24 hrs by Western blot analysis; format: functional, cell-based
[20] = system: RKO; assay: Upregulation of MDM2 gene expression in human RKO cells at 0.31 uM incubated for 24 hrs by qPCR analysis; format: functional, cell-based
[21] = system: RKO; assay: Induction of apoptosis in human RKO cells assessed as viable cells at 25 uM measured after 48 hrs by Annexin V-FITC/PI staining based flow cytometry analysis (reference value: 93.54 %); format: functional; conditions: read-out: Activity
[22] = Oral bioavailability in ICR mouse at 15 mg/kg measured upto 24 hrs by LC-MS/MS analysis; format: ADME, organism-based; conditions: in vivo
[23] = system: HCT-116; assay: Upregulation of p21 protein expression in human HCT-116 cells at 2.5 uM measured after 24 hrs by Western blot analysis; format: functional, cell-based
[24] = system: SW480; assay: cells; conditions: Homo sapiens, SW480, 96 h
[25] = system: MCF7; assay: cells; conditions: Homo sapiens, MCF7, 96 h
[26] = system: U2OS; assay: Upregulation of p53 protein expression in human U2OS cells at 2.5 uM measured after 24 hrs by Western blot analysis; format: functional, cell-based
[27] = system: HCT-116; assay: Upregulation of MDM2 protein expression in human HCT-116 cells at 2.5 uM measured after 24 hrs by Western blot analysis; format: functional, cell-based
[28] = system: RKO; assay: Induction of apoptosis in human RKO cells assessed as late apoptotic cells at 6.25 uM measured after 48 hrs by Annexin V-FITC/PI staining based flow cytometry analysis (reference value: 0.82 %); format: functional
[29] = system: RKO; assay: Upregulation of p21 gene expression in human RKO cells at 0.31 uM incubated for 24 hrs by qPCR analysis; format: functional, cell-based
[30] = target: Cellular tumor antigen p53 (Homo sapiens) (UniProt P04637); assay: Activation of p53 pathway in human HCT-116 cells incubated for 24 hrs by Western blot analysis; format: cell-based; conditions: filed as activator, dose 0.078125-2.5 µM, DDE = dose-dependent effect
[31] = system: RKO; assay: Induction of apoptosis in human RKO cells assessed as late apoptotic cells at 25 uM measured after 48 hrs by Annexin V-FITC/PI staining based flow cytometry analysis (reference value: 0.82 %); format: functional
[32] = system: RKO; assay: Upregulation of p53 expression in human RKO cells incubated for 24 hrs by Western blot analysis; format: functional, cell-based; conditions: dose 0.3125-2.5 µM, DDE = dose-dependent effect
[33] = system: NCI-H460; assay: cells; conditions: Homo sapiens, NCI-H460, 96 h
[34] = system: NCI-H460; assay: Upregulation of p21 protein expression in human NCI-H460 cells at 2.5 uM measured after 24 hrs by Western blot analysis; format: functional, cell-based
[35] = system: HCT-116; assay: Induction of PARP cleavage in human HCT-116 cells incubated for 24 hrs by Western blot analysis; format: functional, cell-based; conditions: dose 0.078125-2.5 µM, DDE = dose-dependent effect
[36] = system: RKO; assay: Upregulation of p21 expression in human RKO cells incubated for 24 hrs by Western blot analysis; format: functional, cell-based; conditions: dose 0.3125-2.5 µM, DDE = dose-dependent effect
[37] = system: NCI-H460; assay: Upregulation of MDM2 protein expression in human NCI-H460 cells at 2.5 uM measured after 24 hrs by Western blot analysis; format: functional, cell-based
[38] = system: RKO; assay: Upregulation of PUMA gene expression in human RKO cells incubated for 24 hrs by qPCR analysis; format: functional, cell-based; conditions: dose 0.3125-2.5 µM, DDE = dose-dependent effect
[39] = system: U2OS; assay: Upregulation of p21 protein expression in human U2OS cells at 2.5 uM measured after 24 hrs by Western blot analysis; format: functional, cell-based
[40] = system: RKO; assay: Induction of apoptosis in human RKO cells assessed as early apoptotic cells at 6.25 uM measured after 48 hrs by Annexin V-FITC/PI staining based flow cytometry analysis (reference value: 3.56 %); format: functional
[41] = system: HeLa; assay: cells; conditions: Homo sapiens, 96 h

Sequence of Cellular tumor antigen p53 (Homo sapiens) (P04637 whole entry, looked up): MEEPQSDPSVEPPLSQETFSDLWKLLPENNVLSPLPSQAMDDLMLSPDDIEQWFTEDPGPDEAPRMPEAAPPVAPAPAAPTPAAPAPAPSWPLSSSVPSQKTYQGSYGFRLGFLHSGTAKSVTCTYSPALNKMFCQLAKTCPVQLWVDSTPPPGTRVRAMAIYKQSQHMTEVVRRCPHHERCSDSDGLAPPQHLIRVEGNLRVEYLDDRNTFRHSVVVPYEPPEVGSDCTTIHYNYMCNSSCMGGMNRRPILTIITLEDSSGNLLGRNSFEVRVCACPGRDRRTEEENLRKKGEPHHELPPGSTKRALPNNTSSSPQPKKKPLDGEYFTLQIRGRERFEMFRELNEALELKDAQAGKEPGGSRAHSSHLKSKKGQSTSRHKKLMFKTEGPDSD
Sequence of Cyclin-dependent kinase inhibitor 1 (Homo sapiens) (P38936 whole entry): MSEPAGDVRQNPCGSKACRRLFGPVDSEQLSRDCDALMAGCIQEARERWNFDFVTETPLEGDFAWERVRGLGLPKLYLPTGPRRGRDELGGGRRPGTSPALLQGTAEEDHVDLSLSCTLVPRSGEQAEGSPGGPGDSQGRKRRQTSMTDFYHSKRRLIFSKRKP

Compound: COc1cc(C(=O)O)ccc1NC(=O)[C@@H]1N[C@@H](CC(C)(C)C)[C@](CNCc2ccncc2)(c2ccc(Cl)cc2F)[C@H]1c1cccc(Cl)c1F
- inhibition in vivo at 100 mg/kg [1]: 18%
- Activity [2]: 3.81%
- Ratio Ki [3]: 6
- Activity [4]: Active
- Activity [5]: Active
- Activity [6]: 1.31%
- Activity [7]: Active
- Activity [8]: Active
- Activity [9]: Dde
- Activity [10]: Active
- IC50 [11]: 200 nM
- Activity [12]: 34.16%
- Activity [13]: Active
- Activity [14]: Dde
- Activity [15]: Dde
- Activity [16]: 1.6%
- AUC at 24 h [17]: 1990 ng·h/mL
- Activity [18]: Active
- Activity [19]: Active
- Activity [20]: Active
- viability at 25 µM [21]: 7.52%
- bioavailability [22]: 13.5%
- Activity [23]: Active
- IC50 [24]: 2820 nM
- IC50 [25]: 520 nM
- Activity [26]: Active
- Activity [27]: Active
- Activity [28]: 3.15%
- Activity [29]: Active
- Activity [30]: Dde
- Activity [31]: 57.01%
- Activity [32]: Dde
- IC50 [33]: 460 nM
- Activity [34]: Active
- Activity [35]: Dde
- Activity [36]: Dde
- Activity [37]: Active
- Activity [38]: Dde
- Activity [39]: Active
- Activity [40]: 6.28%
- IC50 [41]: 7370 nM

Reference: ChEMBL document CHEMBL5154862, “Structure-Based Discovery of MDM2/4 Dual Inhibitors that Exert Antitumor Activities against MDM4-Overexpressing Cancer Cells” (J Med Chem, 2022)
